Experiments:
[1] = Binding affinity to human full-length His-tagged Myt1 kinase expressed in HEK293 cells at 30 ug/ml by TR-FRET based binding assay
[2] = Binding affinity to human full-length His-tagged Myt1 kinase expressed in HEK293 cells at 3 ug/ml by TR-FRET based binding assay

Structure (SMILES)	Activity [1]	Activity [2]
CCCCCCCCCCCCCCCC(=O)NC[C@H]1O[C@H](OC[C@@H](COC(=O)CCCCCCCCCCCCCCC)OC(=O)CCCCCCCCCCCCCCC)[C@@H](O)[C@@H](O)[C@@H]1O	< 5%	< 5%
CCCCCCCCCCCCCCCC(=O)NC[C@H]1O[C@@H](OC[C@@H](COC(=O)CCCCCCCCCCCCCCC)OC(=O)CCCCCCCCCCCCCCC)[C@H](O)[C@@H](O)[C@@H]1O	< 5%	< 5%
CCCCCCCCCCCCCCCC(=O)NC[C@H]1O[C@@H](OC[C@@H](COC(=O)CCCCCCCCCCCCCCC)OC(=O)CCCCCCCCCCCCCCC)[C@H](O)[C@@H](O)[C@H]1O	< 5%	< 5%
CCCCCCCCCCCCCCCC(=O)NC[C@H]1O[C@H](OC[C@@H](COC(=O)CCCCCCCCCCCCCCC)OC(=O)CCCCCCCCCCCCCCC)[C@H](O)[C@@H](O)[C@H]1O	< 5%	< 5%

The remaining lines, values ahead:

Activity [1]	Activity [2]	Structure (SMILES)
< 5%	< 5%	CCCCCCCC(=O)NC[C@H]1O[C@@H](OC[C@@H](COC(=O)CCCCCCC)OC(=O)CCCCCCC)[C@H](O)[C@@H](O)[C@@H]1O
7.53%	< 5%	CCCCCCCCCCCCCCCC(=O)NC[C@H]1O[C@@H](OC[C@@H](COC(=O)CCCCCCCCCCCCCCC)OC(=O)CCCCCCCCCCCCCCC)[C@@H](O)[C@@H](O)[C@@H]1O
< 5%	< 5%	CCCCCCCCCCCCCCCC(=O)NC[C@H]1O[C@H](OC[C@@H](COC(=O)CCCCCCCCCCCCCCC)OC(=O)CCCCCCCCCCCCCCC)[C@H](O)[C@@H](O)[C@@H]1O
